How the values were obtained:
[1] = system: western flower thrips (Frankliniella occidentalis); test: Test E: control of western flower thrips on Soleil bean plant, contact and/or systemic; format: in vivo; settings: held 6 days
Experimental: (§1) Test compounds were formulated using a solution containing 10% acetone, 90% water and 300 ppm X-77™ Spreader Lo-Foam Formula non-ionic surfactant containing alkylarylpolyoxyethylene, free fatty acids, glycols and isopropanol (Loveland Industries, Inc. Greeley, Colo., USA). The formulated compounds were applied in 1 mL of liquid through a SUJ2 atomizer nozzle with ⅛ JJ custom body (Spraying Systems Co. Wheaton, Ill., USA) positioned 1.27 cm (0.5 inches) above the top of each test unit. All experimental compounds in these tests were sprayed at 50 ppm, and the test was replicated three times. After spraying of the formulated test compound, each test unit was allowed to dry for 1 h and then a black, screened cap was placed on top. The test units were held for 6 days in a growth chamber at 25° C. and 70% relative humidity. Plant feeding damage was then visually assessed based on foliage consumed, and a pest mortality rating was also counted and calculated for each test unit.
For evaluating control of the western flower thrips (Frankliniella occidentalis) through contact and/or systemic means, the test unit consisted of a small open container with a 5-7-day-old Soleil Bean plant inside. Test compounds were formulated and sprayed as described for Test A. All experimental compounds in these tests were sprayed at 250 or 50 ppm as noted, and the test was replicated three times. After spraying, the test units were allowed to dry for 1 h, 22-27 adult thrips were added to each unit and then a black, screened cap was placed on top. The test units were held for 6 days at 25° C. and 45-55% relative humidity. A mortality rating was assessed along with a plant damage rating for each test unit.

[2] = system: diamondback moth (Plutella xylostella); test: Test A: control of diamondback moth on radish plant, foliar spray; format: in vivo; settings: sprayed at 50 ppm, held 6 days
Description: For evaluating control of diamondback moth (Plutella xylostella) the test unit consisted of a small open container with a 12-14-day-old radish plant inside. This was pre-infested with about 50 neonate larvae that were dispensed into the test unit via corncob grits using a bazooka inoculator. The larvae moved onto the test plant after being dispensed into the test unit.
as §1

SMILES | levels of control efficacy (20% or less feeding damage or 80% or more mortality) ([1]; sprayed at 50 ppm) | levels of control efficacy (20% or less feeding damage or 80% or more mortality) [2] | levels of control efficacy (20% or less feeding damage or 80% or more mortality) ([1]; sprayed at 250 ppm)
CC(NC(=O)c1ccc(C2=NOC(c3cc(C(F)(F)F)cc(C(F)(F)F)c3)(C(F)(F)F)C2)c2ccccc12)C(=O)NCC(C)(C)C (mixture of isomers) [Compound 97] | very good to excellent | – | –
CC(C)(CO)NC(=O)c1ccc(C2=NOC(c3cc(Cl)cc(Cl)c3)(C(F)(F)F)C2)c2ccccc12 (racemic) [Compound 32] | very good to excellent | very good to excellent | very good to excellent
O=C(CNC(=O)c1ccc(C2=NOC(c3cc(F)cc(F)c3)(C(F)(F)F)C2)c2ccccc12)NCC(F)(F)F (stereo not shown) [Compound 73] | – | very good to excellent | very good to excellent
CS(=O)(=O)CCNC(=O)c1ccc(C2=NOC(c3cc(F)cc(F)c3)(C(F)(F)F)C2)c2ccccc12 (stereo not shown) [Compound 80] | – | very good to excellent | very good to excellent
CC(NC(=O)CNC(=O)c1ccc(C2=NOC(c3cc(C(F)(F)F)cc(C(F)(F)F)c3)(C(F)(F)F)C2)c2ccccc12)C(F)(F)F (mixture of isomers) [Compound 104] | – | very good to excellent | –
O=C(CNC(=O)c1ccc(C2=NOC(c3cccc(F)c3)(C(F)(F)F)C2)c2ccccc12)NCC(F)(F)F (stereo not shown) [Compound 74] | – | very good to excellent | –
CC(NC(=O)c1ccc(C2=NOC(c3cc(Cl)cc(C(F)(F)F)c3)(C(F)(F)F)C2)c2ccccc12)C(=O)NCC(C)(C)C (mixture of isomers) [Compound 112] | – | very good to excellent | very good to excellent
CNC(=O)C(C)NC(=O)c1ccc(C2=NOC(c3cc(C(F)(F)F)cc(C(F)(F)F)c3)(C(F)(F)F)C2)c2ccccc12 (mixture of isomers) [Compound 95] | – | very good to excellent | –
O=C(NCCCO)c1ccc(C2=NOC(c3cccc(C(F)(F)F)c3)(C(F)(F)F)C2)c2ccccc12 (racemic) [Compound 42] | very good to excellent | very good to excellent | very good to excellent
CC(C)(CO)CNC(=O)c1ccc(C2=NOC(c3cccc(C(F)(F)F)c3)(C(F)(F)F)C2)c2ccccc12 (stereo not shown) [Compound 61] | – | very good to excellent | –
CC(O)CCNC(=O)c1ccc(C2=NOC(c3cccc(C(F)(F)F)c3)(C(F)(F)F)C2)c2ccccc12 (mixture of isomers) [Compound 44] | very good to excellent | very good to excellent | very good to excellent
O=C(CCNC(=O)c1ccc(C2=NOC(c3cc(Cl)cc(Cl)c3)(C(F)(F)F)C2)c2ccccc12)NCC(F)(F)F (stereo not shown) [Compound 9] | – | very good to excellent | –
CC(C)NC(=O)CNC(=O)c1ccc(C2=NOC(c3cccc(F)c3)(C(F)(F)F)C2)c2ccccc12 (stereo not shown) [Compound 76] | – | very good to excellent | –
CSCCNC(=O)c1ccc(C2=NOC(c3cccc(F)c3)(C(F)(F)F)C2)c2ccccc12 (stereo not shown) [Compound 78] | – | very good to excellent | –
CC(NC(=O)c1ccc(C2=NOC(c3cc(Cl)cc(C(F)(F)F)c3)(C(F)(F)F)C2)c2ccccc12)C(=O)NCC(F)(F)F (mixture of isomers) [Compound 106] | very good to excellent | very good to excellent | very good to excellent
CC(C)NC(=O)CNC(=O)c1ccc(C2=NOC(c3cc(F)cc(F)c3)(C(F)(F)F)C2)c2ccccc12 (stereo not shown) [Compound 75] | – | very good to excellent | –
CCNC(=O)C(C)NC(=O)c1ccc(C2=NOC(c3cc(Cl)cc(C(F)(F)F)c3)(C(F)(F)F)C2)c2ccccc12 (mixture of isomers) [Compound 110] | very good to excellent | very good to excellent | very good to excellent
CC(NC(=O)c1ccc(C2=NOC(c3cc(C(F)(F)F)cc(C(F)(F)F)c3)(C(F)(F)F)C2)c2ccccc12)C(=O)NCC(F)(F)F (mixture of isomers) [Compound 94] | – | very good to excellent | –
CC(C)CNC(=O)C(C)NC(=O)c1ccc(C2=NOC(c3cc(Cl)cc(C(F)(F)F)c3)(C(F)(F)F)C2)c2ccccc12 (mixture of isomers) [Compound 111] | very good to excellent | very good to excellent | very good to excellent
CCCNC(=O)C(C)NC(=O)c1ccc(C2=NOC(c3cc(Cl)cc(C(F)(F)F)c3)(C(F)(F)F)C2)c2ccccc12 (mixture of isomers) [Compound 108] | very good to excellent | very good to excellent | very good to excellent
CC(C)(C)SCCNC(=O)c1ccc(C2=NOC(c3cccc(C(F)(F)F)c3)(C(F)(F)F)C2)c2ccccc12 (racemic) [Compound 57] | – | very good to excellent | –
CC(C)C(NC(=O)c1ccc(C2=NOC(c3cc(Cl)cc(Cl)c3)(C(F)(F)F)C2)c2ccccc12)C(=O)NCC(F)(F)F (mixture of isomers) [Compound 2] | – | very good to excellent | –
CSCCNC(=O)c1ccc(C2=NOC(c3cc(F)cc(F)c3)(C(F)(F)F)C2)c2ccccc12 (stereo not shown) [Compound 77] | – | very good to excellent | very good to excellent
CNC(=O)C(C)NC(=O)c1ccc(C2=NOC(c3cc(Cl)cc(C(F)(F)F)c3)(C(F)(F)F)C2)c2ccccc12 (mixture of isomers) [Compound 109] | very good to excellent | very good to excellent | very good to excellent
CC(NC(=O)c1ccc(C2=NOC(c3cc(Cl)cc(C(F)(F)F)c3)(C(F)(F)F)C2)c2ccccc12)C(=O)NCC(C)(C)C (mixture of isomers) [Compound 131] | – | very good to excellent | very good to excellent
CCCNC(=O)C(C)NC(=O)c1ccc(C2=NOC(c3cc(C(F)(F)F)cc(C(F)(F)F)c3)(C(F)(F)F)C2)c2ccccc12 (mixture of isomers) [Compound 84] | very good to excellent | very good to excellent | very good to excellent
CC(C)NC(=O)C(C)NC(=O)c1ccc(C2=NOC(c3cc(Cl)cc(C(F)(F)F)c3)(C(F)(F)F)C2)c2ccccc12 (mixture of isomers) [Compound 107] | very good to excellent | very good to excellent | very good to excellent
